Results taken from patent US11110195B2, “Esculentin 1a derivatives and uses thereof” (University of Houston System, priority 2013, dated 2021).
≈ marks a conversion by molar mass, not a printed value. Residues, ends and D or L forms follow the SMILES beside them.

Tests used:
[1] = system: Pseudomonas aeruginosa ATCC 19660 induced keratitis; test: Clinical grading of Pseudomonas keratitis in mice; format: in vivo, C57BL/6 mice; settings: scale 0-4
Method: C57BL/6 mice were infected in one eye with P. aeruginosa ATCC 19660 and treated with 40 μM Esc-1a(1-21)NH2 or vehicle control (PBS). In some animals (Pre-trt group) treatment with Esc-1a(1-21)NH2 was initiated 24 hrs prior to infection. […] There was no significant difference between the Esc-1a(1-21)NH2 pretreatment group and when treatment was begun after infection.
(§1) To determine a clinical score, neutrophil infiltration by myeloperoxidase assay (MPO assay) and viable bacterial cell counts in infected and control corneas of C57BL/6 mice with Pseudomonas aeruginosa ATCC 19660 keratitis following pre-treatment and post-infection treatment with Esc-1a(1-21)NH2 up to 5 days post-infection (PI) the following experiment was performed. In these experiments pre-treatment refers to a group of animals where treatment was initiated 24 hrs before infection then continued after infection.
Images of the uninfected control and infected eye were taken on days 1, 3 and 5 PI using a camera equipped slit lamp biomicroscope. Clinical grading of infection on days 1, 3 and 5 PI was by visualizing through a slit lamp and using an established grading scale (Table 2). A myeloperoxidase assay was used to quantitate the polymorphonuclear cell numbers in the infected and control corneas (data presented in FIG. 6). Viable counts for bacteria were recovered from corneas at day 1, 3 and 5 PI (FIG. 7).
1. IP injections of ketamine and xylazine mixture were given (final dose 100 and 10 mg/kg respectively) to anesthetize the mice.
2. Pre-treatment group-5 μl of peptide (40 μM) was instilled topically onto intact corneas—3 times in 24 h.
3. Day 0—Day of infection: • a. 3×1 mm parallel scratches were made at the center of the right cornea of the mice using a 271/2 gauge needle and 5 μl of P. aeruginosa ATCC19660 bacterial solution (1×10^6 CFU) was pipetted on the wounded cornea. • b. Topically pipetted 5 μl of 40 μM Esc-1a(1-21)NH2 or vehicle (PBS) on the cornea 2-times on Day 0 starting 5 hours after bacterial infection.
4. Day 1 post-infection: • a. Captured images and graded the infection using a slit lamp biomicroscope. • b. Harvested corneas from 2 mice per group, pooled the corneas and processed them to perform the MPO assay. • c. Instilled peptide or vehicle three times/24 hrs (6.30 am, 1.30 pm, 8.30 pm).
5. Repeated the peptide or vehicle treatment 3 times a day for the next 4 days.
6. In addition, captured images, graded the infection and repeated the MPO assay on Day 3 and 5 post-infection.
The mean clinical scores for the Esc-1a(1-21)NH2 treated and PBS vehicle control group at day 1, 3 and 5 PI obtained from 4 separate experiments where the size of inoculum was 1*10^6 CFU/5 μl were plotted (FIG. 5).

[2] = system: Pseudomonas aeruginosa ATCC 19660 induced keratitis; test: Neutrophil infiltration into cornea by myeloperoxidase (MPO) assay; format: in vivo, C57BL/6 mice
From the text: Corneas were harvested 1,3 and 5 days after infection and neutrophil infiltration determined by MPO assay. […] PI=post infection, Pre-trt=pretreatment with Esc-1a(1-21)NH2. *Indicates significant difference, p<0.05, among PBS control and peptide treated groups.
as §1
An MPO assay was used to quantitate polymorphonuclear cell numbers in the cornea from both infected corneas (n=2/group/time point) of Esc-1a(1-21)NH2 treated and control (PBS) treated animals. Briefly, corneas were harvested at days 1, 3 and 5 PI. The change in absorbance at 450 nm was monitored for one hour at 15-30 minute intervals. The results were expressed as units of MPO per cornea. One unit of MPO activity is equivalent to 2*10^5 polymorphonuclear cells.
Harvested and pooled corneas (2 mice/group) in 200 μl of sterile PBS/cornea. Placed the harvested corneas on ice until further processing. Homogenized the corneas for 30-45 seconds and briefly sonicated them for 10-20 seconds.
C. Added 10 μl of 0.5% HTAB (hexadecyltrimethylammonium bromide in potassium phosphate buffer 50 mM pH 6) to 90 μl homogenate (*stored the remaining homogenate on ice to obtain recoverable P. aeruginosa counts for viability assay).
D. Sonicated samples 2×5 seconds then freeze thawed three times on liquid nitrogen.
E. Centrifuged at 14000*g at 4° C. for 20 minutes.
F. To 10 ml of phosphate buffer added 0.00167 g 0-dianisidine dihydrochloride and 1.67 μl (0.05%) H2O2. 90 μl of this was added to each well to produce the color reaction (protected the solution from light).
G. Made up standards for MPO using phosphate buffer based on the initial concentration of the MPO. Double diluted 25 μl MPO standard & carry 25 μl over since 10 μl was needed per well (run in duplicate).
H. Added 10 μl of each standard to 96 well plate and 10 μl sample supernatant (in triplicate).
I. Added 90 μl phosphate buffer containing O-d-d and H2O2 to the plate. Popped bubbles and read on spectrophotometer at 450 nm at 3 minutes, 5 minutes, 10 minutes, 15 minutes, 30 minutes, 45 minutes and 60 minutes.
The MPO units per cornea were determined and the mean from 3 independent experiments was plotted (FIG. 6).

Pseudomonas aeruginosa = Pseudomonas aeruginosa ATCC 27853, reference strain; cited from earlier work
[3] = treated after infection, day 3 PI
[4] = treated after infection, day 5 PI

CC[C@H](C)[C@H](NC(=O)CN)C(=O)N[C@@H](Cc1ccccc1)C(=O)N[C@@H](CO)C(=O)N[C@@H](CCCCN)C(=O)N[C@@H](CC(C)C)C(=O)N[C@@H](C)C(=O)NCC(=O)N[C@@H](CCCCN)C(=O)N[C@@H](CCCCN)C(=O)N[C@H](C(=O)N[C@@H](CCCCN)C(=O)N[C@@H](CC(N)=O)C(=O)N[C@@H](CC(C)C)C(=O)N[C@@H](CC(C)C)C(=O)N[C@H](C(=O)N[C@@H](CO)C(=O)NCC(=O)N[C@@H](CC(C)C)C(=O)N[C@@H](CCCCN)C(=O)NCC(N)=O)[C@@H](C)CC)[C@@H](C)CC [Esc-1a(1-21)NH2] (H-GIFSKLAGKKIKNLLISGLKG-NH2; N-terminus assumed)
mean clinical score ([1]; pre-treated (40 μM topical from 24 h before infection), day 1 PI): 1.37±0.07 | mean clinical score ([1]; pre-treated, day 3 PI): 2.29±0.17 | mean clinical score ([1]; pre-treated, day 5 PI): 2.86±0.20 | mean clinical score ([1]; treated after infection (40 μM topical), day 1 PI): 1.38±0.22 | mean clinical score [1, 3]: 2.36±0.24 | mean clinical score [1, 4]: 2.89±0.26 | normalized MPO activity per cornea ([2]; pre-treated, day 1 PI): 1.55±0.4 MPO units | normalized MPO activity per cornea ([2]; pre-treated, day 3 PI): 1.66±0.13 MPO units | normalized MPO activity per cornea ([2]; pre-treated, day 5 PI): 1.55±0.28 MPO units | normalized MPO activity per cornea ([2]; treated after infection, day 1 PI): 1.69±0.40 MPO units | normalized MPO activity per cornea [2, 3]: 1.84±0.16 MPO units | normalized MPO activity per cornea [2, 4]: 1.82±0.42 MPO units | MIC (Pseudomonas aeruginosa): 4 µM (≈ 8.74 µg/mL)
